Test results from patent US20030130493A1, “DNA encoding Edg7 receptor” (priority 1999, published 2003).

Tests used:
human Edg7 receptor [1] = biological target: T1, human Edg7 receptor (Homo sapiens, UniProt Q9UBY5); test: Intracellular calcium mobilization (FLIPR, fluo-3) in Edg7-transfected CHO cells; type: cell-based; design: expressed in transfected cells; host or cells: CHO (transient, electroporation); settings: for activity against Edg7: data not shown
T1 sequence (Q9UBY5 1-353): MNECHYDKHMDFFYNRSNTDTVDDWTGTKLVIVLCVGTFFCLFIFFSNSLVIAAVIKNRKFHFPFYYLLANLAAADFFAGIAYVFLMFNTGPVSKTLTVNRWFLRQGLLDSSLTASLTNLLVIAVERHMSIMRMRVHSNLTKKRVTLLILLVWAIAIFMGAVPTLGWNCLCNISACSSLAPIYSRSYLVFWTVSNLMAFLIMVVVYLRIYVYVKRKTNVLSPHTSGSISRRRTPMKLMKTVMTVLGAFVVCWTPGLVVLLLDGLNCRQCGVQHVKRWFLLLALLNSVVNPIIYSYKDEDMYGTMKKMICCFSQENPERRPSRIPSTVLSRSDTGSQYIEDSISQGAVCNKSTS
Description: (§1) Cells expressing the receptor of interest are plated into clear, flat-bottom, black-wall 96-well plates (Costar) at a density of 80,000-150,000 cells per well and allowed to incubate for 48 hr at 5% CO2, 37° C. The growth medium is aspirated and 100 μl of loading medium containing fluo-3 dye is added to each well. The loading medium contains: Hank's BSS (without phenol red)(Gibco), 20 mM HEPES (Sigma), 0.1 or 1% BSA (Sigma), dye/pluronic acid mixture (e.g. 1 mM Flou-3, AM (Molecular Probes) and 10% pluronic acid (Molecular Probes) mixed immediately before use), and 2.5 mM probenecid (Sigma)(prepared fresh) The cells are allowed to incubate for about 1 hour at 5% CO2, 37° C.
During the dye loading incubation the compound plate is prepared. The compounds are diluted in wash buffer (Hank's BSS (without phenol red), 20 mM HEPES, 2.5 mM probenecid) to a 4×final concentration and aliquoted into a clear v-bottom plate (Nunc). Following the incubation the cells are washed to remove the excess dye. A Denley plate washer is used to gently wash the cells 4 times and leave a 100 μl final volume of wash buffer in each well. The cell plate is placed in the center tray and the compound plate is placed in the right tray of the FLIPR. The FLIPR software is setup for the experiment, the experiment is run and the data are collected. The data are then analyzed using an excel spreadsheet program.

human Edg7 receptor [2] = biological target: T1, human Edg7 receptor; test: Inositol phosphate (IP) release in Edg7-transfected Cos-7, HEK293 and CHO cells; type: cell-based; design: expressed in transfected cells; host or cells: Cos-7, HEK293, CHO (transient, electroporation); settings: for ability to activate Edg7 (inositol phosphate formation): Cos-7 cells transfected with Edg7, varying concentrations
Description: A typical protocol for the electroporation method as applied to Cos-7 cells is described as follows. Cells to be used for transfection are split 24 hours prior to the transfection to provide flasks which are subconfluent at the time of transfection. The cells are harvested by trypsinization resuspended in their growth media and counted. 5×10^6 cells are suspended in 300 μl of DMEM and placed into an electroporation cuvette. 8 μg of receptor DNA plus 8 μg of any additional DNA needed (e.g. G protein expression vector, reporter construct, antibiotic resistance marker, mock vector, etc.) is added to the cell suspension, the cuvette is placed into a BioRad Gene Pulser and subjected to an electrical pulse (Gene Pulser settings: 0.25 kV voltage, 950 μF capacitance). Following the pulse, 800 μl of complete DMEM is added to each cuvette and the suspension transferred to a sterile tube. Complete medium is added to each tube to bring the final cell concentration to 1×10^5 cells/100 μl. The cells are then plated as needed depending upon the type of assay to be performed. Edg7 receptor-mediated activation of the inositol phosphate (IP) second messenger pathways was assessed by radiometric measurement of IP products. In a 96 well microplate format assay, cells are plated at a density of 70,000 cells per well and allowed to incubate for 24 hours. The cells are then labeled with 0.5 μCi [^3H]myo-inositol overnight at 37° C., 5% CO2. Immediately before the assay, the medium is removed and replaced with 90 μL of PBS containing 10 mM LiCl. The plates are then incubated for 15 min at 37° C., 5% CO2. Following the incubation, the cells are challenged with agonist (10 μl/well; 10×concentration) for 30 min at 37° C., 5% CO2. The challenge is terminated by the addition of 100 μL of 50% v/v trichloroacetic acid, followed by incubation at 4° C. for greater than 30 minutes. Total IPs are isolated from the lysate by ion exchange chromatography. Briefly, the lysed contents of the wells are transferred to a Multiscreen HV filter plate (Millipore) containing Dowex AG1-X8 (200-400 mesh, formate form). The filter plates are prepared adding 100μL of Dowex AG1-X8 suspension (50% v/v, water: resin) to each well. The filter plates are placed on a vacuum manifold to wash or elute the resin bed. Each well is first washed 2 times with 200 μl of 5 mM myo-inositol. Total [^3H]inositol phosphates are eluted with 75 μl of 1.2M ammonium formate/0.1M formic acid solution into 96-well plates. 200 μL of scintillation cocktail is added to each well, and the radioactivity is determined by liquid scintillation counting.

[3] = test system: LPA receptors endogenous to oocytes; test: Calcium-activated Cl- currents in control (uninjected) Xenopus oocytes; type: cell-based, Xenopus laevis
human Edg7 receptor [4] = biological target: T1, human Edg7 receptor; test: Calcium-activated Cl- currents in Xenopus oocytes injected with Edg7 mRNA; type: cell-based
Description: Oocytes are harvested from Xenopus laevis and injected with mRNA transcripts as previously described (Quick and Lester, 1994; Smith et al.,1997). Edg7 receptor RNA transcript is synthesized using the T7 polymerase (“Message Machine,” Ambion) from linearized plasmids or PCR products containing the complete coding region of the gene. Oocytes are injected with 1-50 ng synthetic receptor RNA and incubated for 3-8 days at 17° C. Currents are recorded under dual electrode voltage clamp (Axon Instruments Inc.) with 3 M KCl-filled glass microelectrodes having resistances of 1-2 Mohm. Unless otherwise specified, oocytes are voltage clamped at a holding potential of −80 mV. During recordings, oocytes are bathed in continuously flowing (1-3 ml/min) medium containing 96 mM NaCl, 2 mM KCl, 1.8 MM CaCl2, 1 mM MgCl2, and 5 mM HEPES, pH 7.5 (ND96). Drugs are applied either by local perfusion from a 10 μl glass capillary tube fixed at a distance of 0.5 mm from the oocyte, or by switching from a series of gravity fed perfusion lines.
Activation of the phospholipase C (PLC) pathway is assayed by applying a test compound in ND96 solution to oocytes previously injected with mRNA for the Edg7 receptor and observing inward currents at a holding potential of approximately −80 mV. The appearance of currents that reverse at −25 mV and display other properties of the Ca^++-activated Cl^− channel is indicative of receptor-activation of PLC and release of IP3 and intracellular Ca^++.
Involvement of the Gi/o class of G-proteins in GPCR-stimulated Ca^++-activated Cl^− currents is evaluated using PTX, a toxin which inactivates Gi/o G-proteins. Oocytes are injected with 25 ng PTX/oocyte and modulation of Ca^++-activated Cl^− currents by Edg7 receptor is evaluated 2-5 h subsequently.

[5] = test system: mock (empty vector)-transfected Cos-7 cells; test: Inositol phosphate (IP) formation in mock (empty vector)-transfected Cos-7 cells; type: cell-based; settings: 1 μM final concentration, n=4
Description: A typical protocol for the electroporation method as applied to Cos-7 cells is described as follows. Cells to be used for transfection are split 24 hours prior to the transfection to provide flasks which are subconfluent at the time of transfection. The cells are harvested by trypsinization resuspended in their growth media and counted. 5×10^6 cells are suspended in 300 μl of DMEM and placed into an electroporation cuvette. 8 μg of receptor DNA plus 8 μg of any additional DNA needed (e.g. G protein expression vector, reporter construct, antibiotic resistance marker, mock vector, etc.) is added to the cell suspension, the cuvette is placed into a BioRad Gene Pulser and subjected to an electrical pulse (Gene Pulser settings: 0.25 kV voltage, 950 μF capacitance). Following the pulse, 800 μl of complete DMEM is added to each cuvette and the suspension transferred to a sterile tube. Complete medium is added to each tube to bring the final cell concentration to 1×10^5 cells/100 μl. The cells are then plated as needed depending upon the type of assay to be performed. Edg7 receptor-mediated activation of the inositol phosphate (IP) second messenger pathways was assessed by radiometric measurement of IP products. […] 200 μL of scintillation cocktail is added to each well, and the radioactivity is determined by liquid scintillation counting.

[6] = test system: mock DNA (empty vector)-transfected CHO cells; test: Intracellular calcium mobilization (FLIPR, fluo-3) in mock DNA-transfected CHO cells; type: cell-based, Chinese hamster; settings: mean±SEM, n=6, read-out: EC50 of increase in intracellular calcium
Description: In another method, the measurement of intracellular calcium can also be performed on a 96-well (or higher) format and with alternative calcium-sensitive indicators, preferred examples of these are: aequorin, Fluo-3, Fluo-4, Fluo-5, Calcium Green-1, Oregon Green, and 488 BAPTA. After activation of the receptors with agonist ligands the emission elicited by the change of intracellular calcium concentration can be measured by a luminometer, or a fluorescence imager; a preferred example of this is the fluorescence imager plate reader (FLIPR).
as §1
During the dye loading incubation the compound plate is prepared. […] The data are then analyzed using an excel spreadsheet program.

Compound: CCCCC[C@H](O)/C=C/[C@H]1[C@H](O)CC(=O)[C@@H]1C/C=C\CCCC(=O)O [prostaglandin E2]
- activity against Edg7 (human Edg7 receptor [1]): inactive

Compound: platelet-activating factor
- activity against Edg7 (human Edg7 receptor [1]): inactive

Compound: CCCCC/C=C\C/C=C\C/C=C\C/C=C\CCCC(=O)NCCO [anandamide]
- activity against Edg7 (human Edg7 receptor [1]): inactive

Compound: O=c1ccn([C@@H]2O[C@H](COP(=O)(O)OP(=O)(O)OP(=O)(O)O)[C@@H](O)[C@H]2O)c(=O)[nH]1 [UTP]
- intracellular calcium responses in Edg7- versus mock DNA-transfected cells (human Edg7 receptor [1]; CHO cells, n=3): almost identical

Compound: phosphatidyl choline
- activity against Edg7 (human Edg7 receptor [1]): inactive

Compound: CCCCCCCCCCCCC/C=C/[C@@H](O)[C@@H](N)COP(=O)(O)O [sphingosine-1-phosphate]
- ability to activate Edg7 (inositol phosphate formation) (human Edg7 receptor [2]): No dose-responsiveness
- activation of Edg7 receptors (intracellular calcium) (human Edg7 receptor [1]; CHO cells, n=4): failed to activate

Compound: Lysophosphatidic acid [LPA]
- inward Cl- currents, typical response ([3]; control oocytes lacking injection of foreign mRNA): 100-1000 nA
- LPA response (Cl- current) after treatment with PTX ([3]; control oocytes, PTX 25 ng injected 2-5 h prior to recording): nearly abolished
- Cl- current amplitude ([3]; uninjected oocytes, batch with low endogenous LPA activity, oleoyl LPA 1 μM, n=5): 18±18 nA
- concentration at which nearly maximal responses were observed (human Edg7 receptor [4]; Edg7-injected oocytes, Cl- current): 100 nM
- LPA response (Cl- current) after treatment with PTX (human Edg7 receptor [4]; Edg7-injected oocytes, PTX 25 ng injected 2-5 h prior to recording): substantial current remained
- Cl- current amplitude (human Edg7 receptor [4]; oocytes injected with Edg7 mRNA, oleoyl LPA 1 μM, n=5): 1272±126 nA

Compound: phosphatidic acid
- ability to activate Edg7 (inositol phosphate formation) (human Edg7 receptor [2]): partial agonist
- activation of Edg7 receptors (intracellular calcium) (human Edg7 receptor [1]; CHO cells, n=4): agonist
- increase in intracellular calcium (human Edg7 receptor [1]; Edg7 receptors, CHO cells, n=4): approximately 5 fold

Compound: thromboxane B4
- activity against Edg7 (human Edg7 receptor [1]): inactive

Compound: CCCCCCCC/C=C\CCCCCCCC(=O)OCC(O)COP(=O)(O)O (centres unmarked) [oleoyl LPA, oleoyl lysophosphatidic acid]
- average increase in IP production (human Edg7 receptor [2]; Edg7-transfected Cos-7 cells, 1 μM final concentration, n=4): 3 fold
- Emax of IP response (human Edg7 receptor [2]; all three cell lines (Cos-7, HEK 293, CHO)): 200-300%
- average increase in IP production [5]: 2 fold
- peak intracellular calcium response in Edg7-transfected cells as compared to mock DNA-transfected cells (human Edg7 receptor [1]; CHO cells, 10 μM): approximately 3 fold
- EC50 [6]: 347 ± 54 nM

Compound: CCCCCCCCCCCCC/C=C/[C@@H](O)[C@@H](N)COP(=O)([O-])OCC[N+](C)(C)C [sphingosylphosphorylcholine]
- ability to activate Edg7 (inositol phosphate formation) (human Edg7 receptor [2]): No dose-responsiveness

Compound: sphingomyelin
- activity against Edg7 (human Edg7 receptor [1]): inactive

Compound: lysophosphatidylserine
- significantly different response in Edg7-expressing cells as compared to mock DNA-transfected cells (human Edg7 receptor [1]; CHO cells, intracellular calcium, 10 μM): significantly different response

Compound: CCCCCCCC/C=C\CCCCCCCC(=O)O [oleic acid]
- activity against Edg7 (human Edg7 receptor [1]): inactive
